Data taken from US10080739B2, “Aryl imidazoles and their use as anti-cancer agents” (Aptose Biosciences Inc., priority 2003, dated 2018).
“Also recorded” adds a separate entry of the source.

What was measured:
[1] = system: human non-small cell lung cancer cells (H460); assay: XTT cell proliferation assay, H460 cells, 48 h; assay type: cell-based; settings: NCI-H460, 48 h, read-out: % Survival
Description: Selected compounds of Formula I were tested for anti-cancer activity in vitro using a human colon carcinoma cells (HT-29) and human non-small cell lung cancer cells (H460). The cells were maintained in α-MEM medium (Wisent, St-Bruno, Qc) supplemented with 10% FBS, and grown at 37° C. in an atmosphere of 5% CO2. Cells were transferred onto 150 mm tissue culture plates and grown until sub-confluency (70-80%) prior to their use.
The anti-cancer activity in vitro was evaluated by a cell proliferation assay based on the ability of live cells to reduce the tetrazolium salt XTT to orange coloured compounds of formazan (XTT cell proliferation kit II, Roche Applied Science, Montreal, QC).
Approximately 4×10^3 colon cancer cells (HT-29) or 2×10^3 non-small cell lung cancer cells (NCI-H460) in 100 μl of complete culture medium were plated onto 96-well microtiter plates and incubated overnight at 37° C. The medium was then removed by inverting the plate and patting on a sterile absorbent cloth. Fifty μl of medium containing the test compound at either 25 or 100 μM, were added to the wells containing cells and incubated at 37° C. in an atmosphere of 5% CO2 for 48 h. Following incubation, 25 μl of an XTT reaction mixture (XTT at a final concentration of 0.3 mg/ml) were added to each well and the plates were incubated for a further 4 h. The absorbance of each sample was then determined at a wavelength of 490 nm/650 nm as reference. Each compound was tested in duplicate and the results are reported as averages.

[2] = system: HT-29 colon adenocarcinoma cells; assay: cell cycle analysis by flow cytometry; assay type: cell-based, human; settings: HT-29 cells starved 3 days, 15 μM or 25 μM for 24 or 48 hours, 10% serum
Description: The effect of treatment with compound 45 on cell cycle progression in HT-29 colon adenocarcinoma cells was examined by flow cytometry (FIG. 22). Values were determined by gate analysis of flow cytometric plots and are presented in FIG. 22 as a percentage of the total cell population, after eliminating doubles. Apoptotic events inferred by the surface area preceding G1 phase. Cells were starved for 3 days, and treated with 15 μM or 25 μM compound 45 for 24 or 48 hours in the presence of 10% serum, followed by flow cytometric analysis.

[3] = system: A498 renal carcinoma cells; assay: morphological changes (vacuoles), A498; assay type: cell-based, human; settings: treatment for 24 hours
Description: These vacuoles are not formed in DMSO- or doxorubicin-treated cells. Moreover, the nuclear membrane is no longer evident in the phase-contrast images of cells treated with compound 45, even though the nucleus is still intact, as shown by DAPI staining.

Ax1 = molecular target: T1, Ax1 (Homo sapiens, UniProt P30530); assay: kinase profiler, Ax1; assay type: biochemical; settings: 10 μM compound, 100 μM ATP, mean of % control
T1 construct: purchased Upstate Biotechnologies (kinase profiler service)
Description: (§1) Compound 45 was tested for its ability to function as a kinase inhibitor using the kinase profiler service from Upstate Biotechnologies. The general protocol employed is as follows: recombinant kinases were incubated with specific substrates, 10 mM MgAcetate, and [γ-^33P-ATP]. The reaction was initiated by the addition of MgATP mix. After incubation at room temperature for 40 minutes, the reaction was stopped by the addition of 5 μl of a 3% phosphoric acid solution. 10 μl of the reaction was then spotted on to a P30 filtermat and washed 3 times for 5 min. in 75 mM phosphoric acid and once in methanol prior to drying and scintillation counting. Each reaction was performed in duplicate with 100 μM ATP −/+10 μM compound 45. Results are presented in Table IV and are expressed as the mean of % control (no compound). PI 3-kinase-γ (PI3K-γ) activity was determined with the PIProfiler™ assay, which measures the binding of the GRP1 pleckstrin homology (PH) domain to PIP3, the product of PI3K acting on its physiological substrate PIP2.

CDK2/cyclinE = molecular target: T2, CDK2/cyclinE (Homo sapiens, UniProt P24941); assay: kinase profiler, CDK2/cyclinE; assay type: biochemical; settings: 10 μM compound, 100 μM ATP, mean of % control
T2 construct: purchased Upstate Biotechnologies (kinase profiler service)
Description: as §1

CDK3/cyclinE = molecular target: T3, CDK3/cyclinE (Homo sapiens, UniProt Q00526); assay: kinase profiler, CDK3/cyclinE; assay type: biochemical; settings: 10 μM compound, 100 μM ATP, mean of % control
T3 construct: purchased Upstate Biotechnologies (kinase profiler service)
Description: as §1

CDK6/cyclinD3 = molecular target: T4, CDK6/cyclinD3 (Homo sapiens, UniProt Q00534); assay: kinase profiler, CDK6/cyclinD3; assay type: biochemical; settings: 10 μM compound, 100 μM ATP, mean of % control
T4 construct: purchased Upstate Biotechnologies (kinase profiler service)
Description: as §1

EGFR = molecular target: T5, EGFR (Homo sapiens, UniProt P00533); assay: kinase profiler, EGFR; assay type: biochemical; settings: 10 μM compound, 100 μM ATP, mean of % control
T5 construct: purchased Upstate Biotechnologies (kinase profiler service)
Description: as §1

EphA2 = molecular target: T6, EphA2 (Homo sapiens, UniProt P29317); assay: kinase profiler, EphA2; assay type: biochemical; settings: 10 μM compound, 100 μM ATP, mean of % control
T6 construct: purchased Upstate Biotechnologies (kinase profiler service)
Description: as §1

GSK3α = molecular target: T7, GSK3α (Homo sapiens, UniProt P49840); assay: kinase profiler, GSK3α; assay type: biochemical; settings: 10 μM compound, 100 μM ATP, mean of % control
T7 construct: purchased Upstate Biotechnologies (kinase profiler service)
Description: as §1

IGF-1R = molecular target: T8, IGF-1R (Homo sapiens, UniProt P08069); assay: kinase profiler, IGF-1R; assay type: biochemical; settings: 10 μM compound, 100 μM ATP, mean of % control
T8 construct: purchased Upstate Biotechnologies (kinase profiler service)
Description: as §1

MAPK2 = molecular target: T9, MAPK2 (Homo sapiens, UniProt P28482); assay: kinase profiler, MAPK2; assay type: biochemical; settings: 10 μM compound, 100 μM ATP, mean of % control
T9 construct: purchased Upstate Biotechnologies (kinase profiler service)
Description: as §1

MST2 = molecular target: T10, MST2 (Homo sapiens, UniProt Q13188); assay: kinase profiler, MST2; assay type: biochemical; settings: 10 μM compound, 100 μM ATP, mean of % control
T10 construct: purchased Upstate Biotechnologies (kinase profiler service)
Description: as §1

PI 3-kinase-γ (PI3K-γ) = molecular target: T11, PI 3-kinase-γ (PI3K-γ) (Homo sapiens, UniProt P48736); assay: PIProfiler assay, PI3K-γ; assay type: biochemical; settings: PI3K[…] (PI3Kγ), 10 μM compound, mean of % control
T11 construct: purchased Upstate Biotechnologies (kinase profiler / PIProfiler service)
Description: as §1

PI3K-δ = molecular target: T12, PI3K-δ (Homo sapiens, UniProt O00329); assay: kinase profiler, PI3K-δ; assay type: biochemical; settings: 10 μM compound, mean of % control
T12 construct: purchased Upstate Biotechnologies (kinase profiler service)
Description: as §1

PRK2 = molecular target: T13, PRK2 (Homo sapiens, UniProt Q16513); assay: kinase profiler, PRK2; assay type: biochemical; settings: 10 μM compound, 100 μM ATP, mean of % control
T13 construct: purchased Upstate Biotechnologies (kinase profiler service)
Description: as §1

RAF = molecular target: T14, RAF (Homo sapiens, UniProt P04049); assay: kinase profiler, RAF; assay type: biochemical; settings: 10 μM compound, 100 μM ATP, mean of % control
T14 construct: purchased Upstate Biotechnologies (kinase profiler service)
Description: as §1

Ros = molecular target: T15, Ros (Homo sapiens, UniProt P08922); assay: kinase profiler, Ros; assay type: biochemical; settings: 10 μM compound, 100 μM ATP, mean of % control
T15 construct: purchased Upstate Biotechnologies (kinase profiler service)
Description: as §1

Rsk1 = molecular target: T16, Rsk1 (Homo sapiens, UniProt Q15418); assay: kinase profiler, Rsk1; assay type: biochemical; settings: 10 μM compound, 100 μM ATP, mean of % control
T16 construct: purchased Upstate Biotechnologies (kinase profiler service)
Description: as §1

SAPK2a = molecular target: T17, SAPK2a (Homo sapiens, UniProt Q16539); assay: kinase profiler, SAPK2a; assay type: biochemical; settings: 10 μM compound, 100 μM ATP, mean of % control
T17 construct: purchased Upstate Biotechnologies (kinase profiler service)
Description: as §1

SGK = molecular target: T18, SGK (Homo sapiens, UniProt O00141); assay: kinase profiler, SGK; assay type: biochemical; settings: 10 μM compound, 100 μM ATP, mean of % control
T18 construct: purchased Upstate Biotechnologies (kinase profiler service)
Description: as §1

SRC = molecular target: T19, SRC (Homo sapiens, UniProt P12931); assay: kinase profiler, SRC; assay type: biochemical; settings: 10 μM compound, 100 μM ATP, mean of % control
T19 construct: purchased Upstate Biotechnologies (kinase profiler service)
Description: as §1

T17 sequence (Q16539 whole entry): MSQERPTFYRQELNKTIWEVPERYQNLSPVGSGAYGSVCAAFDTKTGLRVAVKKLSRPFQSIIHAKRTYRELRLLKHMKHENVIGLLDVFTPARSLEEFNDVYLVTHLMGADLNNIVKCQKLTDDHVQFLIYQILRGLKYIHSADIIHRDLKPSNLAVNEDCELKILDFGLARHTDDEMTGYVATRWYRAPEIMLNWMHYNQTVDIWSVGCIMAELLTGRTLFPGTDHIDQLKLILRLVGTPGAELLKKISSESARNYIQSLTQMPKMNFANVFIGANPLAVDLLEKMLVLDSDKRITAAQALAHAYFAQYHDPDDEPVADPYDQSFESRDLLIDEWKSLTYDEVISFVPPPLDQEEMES
T6 sequence (P29317 24-976): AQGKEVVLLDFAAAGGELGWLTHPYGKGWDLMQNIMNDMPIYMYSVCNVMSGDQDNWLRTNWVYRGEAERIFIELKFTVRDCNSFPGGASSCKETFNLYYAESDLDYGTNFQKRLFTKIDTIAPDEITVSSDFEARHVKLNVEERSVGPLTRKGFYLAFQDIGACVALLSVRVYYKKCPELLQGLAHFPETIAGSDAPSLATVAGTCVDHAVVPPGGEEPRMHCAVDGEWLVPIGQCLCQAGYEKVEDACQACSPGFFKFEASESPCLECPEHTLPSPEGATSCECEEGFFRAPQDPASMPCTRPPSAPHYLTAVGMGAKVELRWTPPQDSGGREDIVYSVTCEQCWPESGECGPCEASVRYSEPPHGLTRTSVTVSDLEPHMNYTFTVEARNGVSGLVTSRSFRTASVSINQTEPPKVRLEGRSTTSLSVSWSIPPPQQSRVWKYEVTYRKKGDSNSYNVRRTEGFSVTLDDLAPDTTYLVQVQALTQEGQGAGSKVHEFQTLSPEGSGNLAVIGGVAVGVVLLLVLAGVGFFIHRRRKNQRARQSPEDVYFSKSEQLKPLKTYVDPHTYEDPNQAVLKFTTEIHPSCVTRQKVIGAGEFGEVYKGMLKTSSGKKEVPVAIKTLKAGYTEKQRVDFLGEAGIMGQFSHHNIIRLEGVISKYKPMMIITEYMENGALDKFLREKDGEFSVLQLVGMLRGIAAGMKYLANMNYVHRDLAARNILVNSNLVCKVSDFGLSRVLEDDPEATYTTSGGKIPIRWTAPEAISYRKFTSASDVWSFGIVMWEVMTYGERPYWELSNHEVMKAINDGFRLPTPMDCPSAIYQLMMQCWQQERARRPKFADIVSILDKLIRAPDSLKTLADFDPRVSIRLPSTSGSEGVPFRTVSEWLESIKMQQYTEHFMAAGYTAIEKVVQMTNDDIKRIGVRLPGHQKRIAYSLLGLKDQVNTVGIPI
T3 sequence (P24864 whole entry): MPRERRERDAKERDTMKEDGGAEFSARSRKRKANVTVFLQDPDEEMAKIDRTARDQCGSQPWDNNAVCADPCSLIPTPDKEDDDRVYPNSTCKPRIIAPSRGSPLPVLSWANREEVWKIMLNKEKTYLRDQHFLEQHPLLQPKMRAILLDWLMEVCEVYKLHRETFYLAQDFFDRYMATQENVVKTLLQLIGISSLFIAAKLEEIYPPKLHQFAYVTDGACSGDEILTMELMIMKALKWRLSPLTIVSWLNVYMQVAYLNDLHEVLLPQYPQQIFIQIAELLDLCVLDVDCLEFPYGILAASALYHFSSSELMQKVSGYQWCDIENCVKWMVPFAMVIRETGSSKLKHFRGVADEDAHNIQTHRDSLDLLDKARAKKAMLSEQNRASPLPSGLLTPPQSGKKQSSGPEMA
T3 sequence (Q00526 whole entry): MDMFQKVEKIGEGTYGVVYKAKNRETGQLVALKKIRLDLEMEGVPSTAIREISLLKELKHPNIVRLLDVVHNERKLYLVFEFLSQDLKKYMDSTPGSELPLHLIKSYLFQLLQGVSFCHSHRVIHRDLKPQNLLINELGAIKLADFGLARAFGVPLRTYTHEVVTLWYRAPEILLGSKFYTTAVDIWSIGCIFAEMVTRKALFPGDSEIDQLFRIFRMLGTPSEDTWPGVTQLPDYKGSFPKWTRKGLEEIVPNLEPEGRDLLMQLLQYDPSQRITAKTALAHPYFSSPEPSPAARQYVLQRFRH
T18 sequence (O00141 whole entry): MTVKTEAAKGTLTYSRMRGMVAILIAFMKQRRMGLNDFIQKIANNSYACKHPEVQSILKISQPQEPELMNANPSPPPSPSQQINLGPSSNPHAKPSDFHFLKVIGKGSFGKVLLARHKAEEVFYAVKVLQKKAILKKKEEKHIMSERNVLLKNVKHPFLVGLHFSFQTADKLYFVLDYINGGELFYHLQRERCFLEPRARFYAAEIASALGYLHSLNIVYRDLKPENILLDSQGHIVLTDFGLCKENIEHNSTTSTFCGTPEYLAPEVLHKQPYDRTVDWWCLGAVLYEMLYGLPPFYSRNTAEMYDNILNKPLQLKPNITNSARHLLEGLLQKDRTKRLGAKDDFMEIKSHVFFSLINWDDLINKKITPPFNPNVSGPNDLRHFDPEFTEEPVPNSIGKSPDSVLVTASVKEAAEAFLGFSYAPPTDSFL
T19 sequence (P12931 whole entry): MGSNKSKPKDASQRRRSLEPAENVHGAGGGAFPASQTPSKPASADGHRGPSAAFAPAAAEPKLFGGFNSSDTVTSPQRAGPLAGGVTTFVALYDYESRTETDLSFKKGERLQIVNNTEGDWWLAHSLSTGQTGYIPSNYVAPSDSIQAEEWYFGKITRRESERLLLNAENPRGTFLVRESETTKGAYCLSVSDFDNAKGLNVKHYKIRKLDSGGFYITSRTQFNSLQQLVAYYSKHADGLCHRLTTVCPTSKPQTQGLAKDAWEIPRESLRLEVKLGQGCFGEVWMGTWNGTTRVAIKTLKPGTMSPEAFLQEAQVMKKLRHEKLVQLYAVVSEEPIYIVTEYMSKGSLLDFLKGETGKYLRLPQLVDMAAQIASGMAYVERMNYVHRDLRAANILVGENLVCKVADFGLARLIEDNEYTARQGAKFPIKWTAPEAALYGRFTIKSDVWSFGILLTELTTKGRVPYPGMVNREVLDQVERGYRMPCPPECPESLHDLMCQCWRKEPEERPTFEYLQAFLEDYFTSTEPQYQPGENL
T11 sequence (P48736 whole entry): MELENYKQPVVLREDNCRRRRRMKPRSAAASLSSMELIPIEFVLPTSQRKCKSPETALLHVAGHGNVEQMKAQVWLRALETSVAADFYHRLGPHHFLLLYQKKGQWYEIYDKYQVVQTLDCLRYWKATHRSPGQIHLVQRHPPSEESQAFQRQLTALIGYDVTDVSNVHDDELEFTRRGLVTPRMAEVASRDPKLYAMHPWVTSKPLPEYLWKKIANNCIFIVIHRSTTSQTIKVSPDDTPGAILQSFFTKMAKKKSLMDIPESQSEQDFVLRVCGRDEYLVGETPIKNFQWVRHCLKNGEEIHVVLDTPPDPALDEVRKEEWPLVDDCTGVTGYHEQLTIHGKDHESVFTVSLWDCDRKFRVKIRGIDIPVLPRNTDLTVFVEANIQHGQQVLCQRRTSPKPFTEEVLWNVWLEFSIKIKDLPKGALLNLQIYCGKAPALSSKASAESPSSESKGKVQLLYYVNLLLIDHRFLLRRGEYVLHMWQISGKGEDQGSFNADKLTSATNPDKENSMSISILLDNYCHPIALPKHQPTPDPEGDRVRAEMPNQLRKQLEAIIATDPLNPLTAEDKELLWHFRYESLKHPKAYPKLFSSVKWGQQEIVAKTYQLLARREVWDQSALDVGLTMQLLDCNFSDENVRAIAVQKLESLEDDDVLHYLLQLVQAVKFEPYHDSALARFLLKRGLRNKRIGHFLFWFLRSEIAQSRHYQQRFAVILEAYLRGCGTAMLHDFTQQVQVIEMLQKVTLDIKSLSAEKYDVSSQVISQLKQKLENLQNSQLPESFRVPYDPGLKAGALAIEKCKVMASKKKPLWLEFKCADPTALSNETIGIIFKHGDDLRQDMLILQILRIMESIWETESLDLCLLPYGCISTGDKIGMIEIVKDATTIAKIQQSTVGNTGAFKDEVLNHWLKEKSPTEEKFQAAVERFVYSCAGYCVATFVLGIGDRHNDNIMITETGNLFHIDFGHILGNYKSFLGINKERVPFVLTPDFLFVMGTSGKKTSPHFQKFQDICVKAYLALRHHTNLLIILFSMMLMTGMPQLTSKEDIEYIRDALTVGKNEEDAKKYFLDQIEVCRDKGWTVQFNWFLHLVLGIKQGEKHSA
T9 sequence (P28482 whole entry): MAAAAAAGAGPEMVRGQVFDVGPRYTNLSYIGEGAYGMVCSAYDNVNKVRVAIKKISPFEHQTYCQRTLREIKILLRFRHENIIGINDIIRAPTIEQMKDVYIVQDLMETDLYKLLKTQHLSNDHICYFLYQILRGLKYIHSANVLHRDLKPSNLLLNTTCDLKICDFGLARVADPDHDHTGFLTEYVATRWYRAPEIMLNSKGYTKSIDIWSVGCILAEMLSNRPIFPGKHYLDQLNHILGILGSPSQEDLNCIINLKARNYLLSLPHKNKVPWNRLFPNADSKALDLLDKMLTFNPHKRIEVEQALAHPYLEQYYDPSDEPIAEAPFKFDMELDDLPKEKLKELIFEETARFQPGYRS
T10 sequence (Q13188 whole entry): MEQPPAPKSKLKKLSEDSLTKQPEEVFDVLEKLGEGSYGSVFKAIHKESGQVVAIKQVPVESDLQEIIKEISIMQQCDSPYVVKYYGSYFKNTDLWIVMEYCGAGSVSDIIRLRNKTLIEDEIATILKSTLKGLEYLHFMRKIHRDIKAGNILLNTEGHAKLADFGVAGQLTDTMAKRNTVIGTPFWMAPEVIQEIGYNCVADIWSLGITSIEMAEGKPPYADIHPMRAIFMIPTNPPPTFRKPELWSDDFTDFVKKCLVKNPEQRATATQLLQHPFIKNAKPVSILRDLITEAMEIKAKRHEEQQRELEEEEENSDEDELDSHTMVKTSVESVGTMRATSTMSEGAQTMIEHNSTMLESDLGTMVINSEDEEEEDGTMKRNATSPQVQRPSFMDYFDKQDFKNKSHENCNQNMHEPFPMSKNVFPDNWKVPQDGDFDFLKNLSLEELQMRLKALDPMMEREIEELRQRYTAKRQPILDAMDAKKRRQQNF

Q: Which viability at 25 µM [1] does the source give for `Brc1ccc2[nH]cc(-c3nc4c5ccccc5c5ccccc5c4[nH]3)c2c1` [Compound 45] here?
A: 96%

Q: What about the viability at 100 µM [1] of the same compound?
A: 32.7%

Q: And the “effect on cell cycle progression” value [2]?
A: increase of cells in the G1 phase and a decrease in the S and G2/M phases; also recorded: partial arrest in the G0/G1 phase

Q: And the formation of vacuoles [3]?
A: formation of large vacuoles within the cytoplasm

Q: What about the activity at 10 µM (Ax1) of the same compound?
A: 100%

Q: What about the activity at 10 µM (CDK2/cyclinE) of the same compound?
A: 117%

Q: And the activity at 10 µM (CDK3/cyclinE)?
A: 107%

Q: And the activity at 10 µM (CDK6/cyclinD3)?
A: 87%

Q: And the activity at 10 µM (EGFR)?
A: 105%

Q: And the activity at 10 µM (EphA2)?
A: 95%

Q: What about the activity at 10 µM (GSK3α) of the same compound?
A: 96%

Q: What about the activity at 10 µM (IGF-1R) of the same compound?
A: 80%

Q: What about the activity at 10 µM (MAPK2) of the same compound?
A: 99%

Q: And the activity at 10 µM (MST2)?
A: 77%

Q: And the activity at 10 µM (PI 3-kinase-γ (PI3K-γ))?
A: 22%

Q: And the activity at 10 µM (PI3K-δ)?
A: 9%

Q: What about the activity at 10 µM (PRK2) of the same compound?
A: 83%

Q: And the activity at 10 µM (RAF)?
A: 100%

Q: What about the activity at 10 µM (Ros) of the same compound?
A: 107%

Q: And the activity at 10 µM (Rsk1)?
A: 183%

Q: What about the activity at 10 µM (SAPK2a) of the same compound?
A: 62%

Q: What about the activity at 10 µM (SGK) of the same compound?
A: 89%

Q: What about the activity at 10 µM (SRC) of the same compound?
A: 102%
